Test results: US20260232706A1, “1H-PYRAZOLE ANALOGUES AND METHODS AND USES THEREOF” (University of Manitoba, priority 2022, published 2026)

Experiments:
[1] = test system: neuroblastoma-spinal cord hybrid NSC-34 cells; test: Neuroprotective effect/cell viability analysis in NSC-34 cells against H2O2 induced oxidative stress; format: cell-based; conditions: 250 μM H2O2
Method: Methods: The in vitro properties and antioxidant abilities of the synthesized B^5-EDR analogues were assessed in cell-based assays. […] The methodology employed for each of these assays is detailed below.
(iii) Methodology for neuroprotective effect/cell viability analysis in (NSC-34) cells (FIGS. 8A-B): Briefly, NSC-34 cells with about 20 k cells per well in 96 well plates were cultured in a complete medium consisting of high glucose Dulbecco's modified eagle medium (DMEM) (Thermo Fisher Scientific) supplemented with about 10% US-origin fetal bovine serum (Thermo Fisher Scientific), GlutaMAX-1, about 200 mM (100×) (Thermo Fisher Scientific), about 1% 100 mM Sodium pyruvate and about 1% 10,000 U/mL penicillin-streptomycin solution (Thermo Fisher Scientific) for about 20 h to reach confluency of about 70%—about 75%. All the cells were cultured in an incubator with about 5% of CO2 at about 37° C. About 20 kcells/100 μl/well were seeded in 96 well plates for about 20 h in triplicates. […] After about 1 h, the cells were treated with 250 μM of H2O2 for about 2 h. After a total period of about 3 h, about 10 μl of WST-8 reagent was added in each well and the absorbance readings were recorded after about 2.5 h at about 450 nm. All the experiments were repeated at least three times and measurements were run in triplicates.

WG37R mice = test: 14-day acute toxicity assessment in WG37R mice; format: in vivo; conditions: for H&E histology compared with control mice / signs of overt degeneration, inflammation and necrosis in examined tissues: single IP 10 mg/kg
Method: The WG37R mice were randomly assigned to 2 groups: For the first set of the experiment, a total of 6 animals per group (3 male and 3 female) were used in the study. Group 1: Sham treatment 1 (1:20 DMSO/PBS) and Group 2: NS-1-2 (10 mg/kg body weight). According to requirement of acute toxicity study, 6-10 animals should be used to evaluate the effect of a substance. However, as the new analogues are structurally similar to Edaravone, having a single-dose safety profile of 450 mg/kg, the mortality of the Edaravone analogues at a dose of 10 mg/kg body weight/day was not expected. Considering the above facts, for the present acute study, the minimum number of animals was 6 per group. Morphological alterations, histological changes, and mean body weight assessments for whole set of animals, for both the WG37R control groups (N=6; 1:20, DMSO:PBS) and WG37R treated groups (N=6; NS-1-2; 10 mg/kg bodyweight) were assessed during the 14-day acute toxicity assessment, by giving a single IP injection to the mouse at 2 months of age (see further detail in (iia) below.
For intraperitoneal administration, about 1:20 of DMSO/PBS, at a pH of about 7.4 was used for the suspension of NS-1-2 test substance. Edaravone was dissolved in about 1 mL of about 1 mol/L NaOH and adjusted to about pH 7.4 by adding about 1 mol/L HCl, and then diluted in saline. A volume of about 400 μl from final reconstituted solution was aliquoted and stored in about −80° C., until further use. For acute toxicity experiments, a single dose of about 10 mg/kg bodyweight of NS-1-2 was intraperitoneally injected to group 2, WG37R mice model at the age of 2 months. The WG37R mice in the group 1 received an injection of equal volume of (about 1:20; DMSO:PBS) instead. For chronic toxicity experiments, 120 daily doses of about 10 mg/kg bodyweight of NS-1-2 was intraperitoneally injected to group 4, WG37R mice model at the age of 3 months for 120 days, until the age of 7 months. The WG37R mice in the group 3 received an injection of equal volume of (about 1:20; DMSO:PBS) instead.
Wild type (WT) G37R mice received a single dose (about 0.2 mls) IP injection of Sham suspended in (about 1:20; DMSO:PBS) and a single dose of about 10 mg/kg bodyweight (about 0.2 mls) IP injection of NS-1-2 suspended in about 1:20; DMSO:PBS at the age of 2 months. […] At the experimental endpoint, the mice were first deeply anesthetized with a mixture of about 20% v/v isoflurane/propylene glycol (about 1 ml of the mixture per about 500 ml of bell jar space, University of Manitoba animal care SOP A003) and than exsanguination was done by cutting the animal's right atrium followed by an intracardiac perfusion with about 0.9% NaCl. During perfusion, syringe barrel nosecone was used for prolonged anesthesia. Cardiac perfusion was followed by perfusion with about 4% paraformaldehyde for histology (H&E staining) analysis. Mouse tissues (brain, heart, spinal cord, kidney, liver, muscle, lung, and spleen) were fixed for about 48 h in about 4% buffered formalin at about 4° C. Only the spinal cord was processed after about 24 h to remove the spine and again fixed for about another 24 h. Samples were processed and embedded into paraffin blocks at the Histomorphology and Ultrastructural Imaging platform, Dept. of Human Anatomy and Cell Science, University of Manitoba. Briefly, the embedded tissues were cut into about 5 μm thickness, mounted on super frost plus slides and dried overnight at about 37° C. Slides were deparaffinized in about 2 changes of xylene and rehydrated in descending alcohols (about 2 changes of about 100% Ethanol and about 2 changes of about 95% Ethanol) and tap water. Slides were stained with Harris Haematoxylin followed by differentiation with acid alcohol. After rinsing in tap water, saturated lithium carbonate was used for Bluing the nucleus. After that the slides were rinsed in tap water and counter stained with eosin. […]

[2] = single 10 mg/kg IP dose, 2 weeks monitoring

SMILES: Cc1cc(B2OC(C)(C)C(C)(C)O2)n(-c2ccccc2)n1 [NS-1-2, 3-methyl-5-(4,4,5,5-tetramethyl-1,3,2-dioxaborolan-2-yl)-1-phenyl1H-pyrazole]
- neuroprotection in scavenging neurotoxic effects of H2O2 compared to EDR ([1]; 1 μM): better neuroprotection
- neuroprotection in scavenging neurotoxic effects of H2O2 compared to EDR ([1]; 25 μM): better neuroprotection
- viability compared to EDR ([1]; 50 μM dose): almost equal viability
- H&E histology compared with control mice (WG37R mice; G37RWT female mice, FIG. 13): no significant differences with respect to control mice
- signs of overt degeneration, inflammation and necrosis in examined tissues (WG37R mice; G37RWT female mice, FIG. 13): no signs of overt degeneration, inflammation and necrosis
- H&E histology compared with control mice (WG37R mice; G37RWT male mice, FIG. 12): no significant differences with respect to control mice
- signs of overt degeneration, inflammation and necrosis in examined tissues (WG37R mice; G37RWT male mice, FIG. 12): no signs of overt degeneration, inflammation and necrosis
- changes in body weight (WG37R mice; acute treatment, 10 mg/kg, FIG. 10): did not induce any abnormal changes in the body weight
- daily general observations (WG37R mice; [2]): normal appearance, normal general behaviour with well-conditioned body condition
- treatment-related deaths (WG37R mice; [2]): No acute treatment-related deaths
